Measured values taken from patent US20240118281A1, “ANTICANCER COMPOUNDS AND USES THEREOF” (University of Florida Research Foundation, Incorporated, priority 2021, published 2024).

Legend:
[1] = tested on: HER2+ BT474 xenograft tumors; assay: BT474 xenograft tumor study, H&E staining of mammary fat pads/tumors; format: in vivo, mice; conditions: 20 mg/kg intraperitoneal, four consecutive days; vehicle tumors showed no necrosis
Method: Breast cancer liver metastasis was initiated in NOD-SCID-gamma (NSG) mice obtained from Jackson Laboratories (Bar Harbor, ME) by injecting 1×10^6 cancer cells into the #4 mammary fat pads as described previously (Wang M, et al. Cell Death Discovery 2019; 5: 153). Mice bearing HCI-001/LVM2 breast tumors were treated once daily for four consecutive days with 20 mg/kg tcyDTDO by oral gavage and livers were collected. Animals bearing HER2+ BT474 tumors were treated with the vehicle or 20 mg/kg dMtcyDTDO or dFtcyDTDO by intraperitoneal injection for four consecutive days. Tissue samples fixed in 4% paraformaldehyde/PBS and paraffin-embedded were sectioned and stained with hematoxylin and eosin (H&E) by the University of Florida Molecular Pathology Core (https://molecular.pathology.ufl.edu/).

MDA-MB-468 cells [2] = assay: Cell viability (MTT) assay; format: cell-based; conditions: FIG. 1D
Method: MTT (3-(4,5-dimethylthiazol-2-yl)-2,5-diphenyltetrazolium bromide) (Biomatik, Wilmington, DE) assays were performed by plating 7,500 cells/well in 10% FBS/DMEM in a 96-well plate, followed by incubation at 37° C. for 24 h. Cells were then treated with vehicle or increasing concentrations of tcyDTDO, dMtcyDTDO, or dFtcyDTDO and incubated at 37° C. for 72 h. Cell media was subsequently removed from each well and MTT assays were initiated by incubating cells with 0.5 mg/ml MTT in PBS for 3 h, followed by removal of the MTT solution and addition of 100 µL of DMSO to each well for 30 min. Absorbance of the MTT formazan product was subsequently measured at 570 and 690 (reference) nm in a plate reader.

MDA-MB-468 cells [3] = assay: Thymidine incorporation (DNA synthesis) assay; format: cell-based; conditions: 24 h, FIG. 9A
Method: Thymidine incorporation assays were performed as described previously (Corsino P, et al. J Biol Chem 2009; 284: 29945-29955).

[4] = tested on: HER3, DR5, CHOP and XBP1s; assay: Reducing immunoblot of DDA responses; format: cell-based; conditions: MDA-MB-468 cells
Description: The BT20, BT474, BT549, MCF7, MDA-MB-231, MDA-MB-436, MDA-MB-468, HCC1143, HCC1500, HCC1569, HCC1937, HCC1954, Hs578t, and T47D cells lines were purchased from American Type Culture Collection (ATCC) (Manassas, VA). The HCI-001 cell line was derived from an ER-/PR-/HER2- patient-derived xenograft originally isolated from a patient as described previously (DeRose Y S, et al. Nat Med 2011; 17: 1514-1520). The HCI-001/LVM2 model was derived from the HCI-001 cell line by performing two rounds of selection for liver metastasis, as described previously (Wang M, et al. Cell Death Discovery 2019; 5: 153). Cell lines were grown in Dulbecco's Modified Eagle's Medium (GE Healthcare Life Sciences, Logan, UT) containing 10% fetal bovine serum (10% FBS—DMEM) in a humidified incubator with 5% CO2 at 37° C. Cell lysates were prepared as described previously (Law B K, et al. Mol Cell Biol. 2002; 22: 8184-8198). […]

ERAP1 [5] = assay: ERAP1 retention/secretion in MDA-MB-468 cells, immunoblot; format: cell-based; conditions: MDA-MB-468 cells
Description: The BT20, BT474, BT549, MCF7, MDA-MB-231, MDA-MB-436, MDA-MB-468, HCC1143, HCC1500, HCC1569, HCC1937, HCC1954, Hs578t, and T47D cells lines were purchased from American Type Culture Collection (ATCC) (Manassas, VA). The HCI-001 cell line was derived from an ER-/PR-/HER2- patient-derived xenograft originally isolated from a patient as described previously (DeRose Y S, et al. Nat Med 2011; 17: 1514-1520). The HCI-001/LVM2 model was derived from the HCI-001 cell line by performing two rounds of selection for liver metastasis, as described previously (Wang M, et al. Cell Death Discovery 2019; 5: 153). Cell lines were grown in Dulbecco's Modified Eagle's Medium (GE Healthcare Life Sciences, Logan, UT) containing 10% fetal bovine serum (10% FBS—DMEM) in a humidified incubator with 5% CO2 at 37° C. Cell lysates were prepared as described previously (Law B K, et al. Mol Cell Biol. 2002; 22: 8184-8198). Immunoblot analysis was performed utilizing the following antibodies purchased from Cell Signaling Technology (Beverly, MA) [Akt, #4691; P-Akt[T308], #13038; ATF4, #11815; CHOP, #2895; Cleaved Caspase 8, #9496; DR4, #42533; DR5, #8074; EGFR, #4267; GRP78, #3177; HER3, #4754; PARP, #9532; PDIA1, #3501; XBP1s, #12782], from Santa Cruz Biotechnology (Santa Cruz, CA) [Actin, sc-47778; AGR2/3, sc-376653; AGR3, sc-390940; ERO1-a, sc-100805; and ERp44, sc-393687], or from Rockland Immunochemicals, Inc. (Limerick, PA), Streptavidin-Alkaline Phosphatase conjugated (SA-AP), S000-05.
To assess protein disulfide bond-mediated oligomerization, cells were treated with DDAs for 24 h in 10% FBS-DMEM. Cells were subsequently scraped directly into the media and pelleted by centrifugation. Cells were extracted directly into boiling 2×-SDS-Sample Buffer containing 100 mM NEM and boiled for 10 min. Samples were sonicated, followed by centrifugation for 20 min at room temperature. Samples were subsequently analyzed by SDS-PAGE and immunoblot.

ERAP1 [6] = assay: ERAP1 secretion in A431 skin cancer cells, immunoblot; format: cell-based; conditions: 5 μM, 24 h

CO[C@H]1C[C@@H]2CS(=O)(=O)SC[C@H]2C[C@@H]1OC [dMtcyDTDO, dimethoxy-tcyDTDO]
Tumors in mammary fat pads, H&E histology [1]: tumors that had undergone coagulation necrosis
Potency in cell viability assays relative to tcyDTDO (MDA-MB-468 cells [2]): approximately two-fold greater potency than tcyDTDO
Potency in DNA synthesis assay relative to tcyDTDO (MDA-MB-468 cells [3]): two-fold greater potency than tcyDTDO
Potency in induction of HER3 downregulation, DR5 upregulation and ERS (CHOP, XBP1s) ([4]; 24 h, reducing conditions, FIG. 9B): more potent than tcyDTDO
Onset of these responses (time-course) ([4]; FIG. 9C): as early as four hours after treatment
ERAP1 levels in the culture medium (ERAP1 [5]; 5 μM, 24 h, FIG. 4F upper): dramatically increased
ERAP1 secretion, statistical analysis (ERAP1 [5]; 5 μM, 24 h, N=3, FIG. 4F lower): induced ERAP1 secretion in a statistically significant manner
Cellular ERAP1 levels, immunoblot (ERAP1 [5]; 24 h, FIG. 4B): decreased cellular ERAP1 levels
Cellular ERAP1 levels, quantitation across four experiments (ERAP1 [5]; FIG. 4C): decreased ERAP1 levels and ERp44 binding to client proteins in a statistically significant manner
ERAP1 levels in the culture medium (ERAP1 [6]; FIG. 4F upper): dramatically increased
ERAP1 secretion, statistical analysis (ERAP1 [6]; N=3, FIG. 4F lower): induced ERAP1 secretion in a statistically significant manner
